Reference: patent publication US8557793B2, “Theanine derivative, preparation method thereof, and use thereof for alleviating acne” (Amorepacific Corporation, priority 2010, dated 2013)

What was measured:
[1] = test system: S. Epidermidis; test: Selective anti-bacterial test, count of germs after shaking culture with sample; assay type: cell-based; conditions: for S. Epidermidis (%) count of germs: count of germs in control group without sample defined as 100%, shaking culture at 32° C. for one day; for change in the count of S. Epidermidis (in words): summary of Table 1
Experimental: (§1) Each sample was added to an aqueous solution of 1% peptone and sterilized. 20 μl/ml of a test germ solution was injected into the sample-containing sterilized aqueous solution of peptone and then subjected to shaking culture at 32° C. for one day. The test germs selected were P. acnes known as present in the skin and harmful to the skin and S. Epidermidis known as relatively harmless to the skin. The solution after the shaking culture was diluted to 1/100 with normal diluting water. 0.1 ml of the diluted solution was placed on a Petri dish and then […]. To the diluted solution was poured TS agar cooled down to about 50° C. The Petri dish hardened with the TS agar was subjected to anaerobic culture at 35° C. for one day to measure the count of the germs. The P. acnes group was subjected to anaerobic culture at 35° C. for one day and then diluted to 1/100 with normal diluting water. 0.1 ml of the diluted solution was placed on a Petri dish, hardened with BHI agar, and subjected to anaerobic culture at 35° C. for 3 days to count the germs. As comparative groups, theanine and maltose were used for the testing. The count of germs in the control group without containing the sample was defined as 100%.

[2] = test system: P. acnes; test: as above; assay type: cell-based, Propionibacterium acnes; conditions: for P. acnes (%) count of germs: count of germs in control group without sample defined as 100%, shaking culture at 32° C. for one day; for change in the count of P. acnes (in words): summary of Table 1
Experimental: as §1

[3] = Primary skin irritation test (closed patch test); assay type: in vivo, human; conditions: for Extent of Skin Irritation: average score on scale 0 (None) to 4 (Extreme), aqueous solution, closed patch on lower arm, 20 subjects, after one day; for safety to the skin (in words): summary of Table 3
Description: An aqueous solution of each theanine derivative of examples 1, 2 and 3 was applied on the lower part of the arm of 20 healthy male and female subjects according to the closed patch test method. The arm was covered with a plastic cap to block external stimuli. All numeral designations in Table 3 are averages of the irritations calculated according to the evaluation method of Table 2. [table]

| Structure (SMILES) | S. Epidermidis (%) count of germs [1] | P. acnes (%) count of germs [2] | change in the count of S. Epidermidis (in words) [1] | change in the count of P. acnes (in words) [2] | Extent of Skin Irritation [3] | safety to the skin (in words) [3] |
| --- | --- | --- | --- | --- | --- | --- |
| OC[C@H]1O[C@H](O[C@H]2[C@H](O)[C@@H](O)C(O)O[C@@H]2CO)[C@H](O)[C@@H](O)[C@@H]1O (mixture of isomers) [Maltose, maltose, reference compound] | 89% | 110% | – | – | – | – |
| CCNC(=O)CC[C@H](NCC1(O)OC[C@@H](O)C(O[C@H]2O[C@H](CO)[C@@H](O)[C@H](O)[C@H]2O)[C@@H]1O)C(=O)O (stereo partly shown) [Example 1, Maltulosyl Theanine] | 83% | 9% | no significant change | reduced count | 0.1 | safe to the skin |
| CCNC(=O)CC[C@H](NCC1(O)OC[C@@H](O)C(O[C@H]2O[C@H](CO)[C@@H](O)[C@H](O)[C@H]2O)[C@@H]1O)C(=O)OC (stereo partly shown) [Example 2, Maltulosyl Theanine Methyl Ester] | 93% | 27% | no significant change | reduced count | 0.2 | safe to the skin |
| CCN(CC)C(=O)CC[C@H](NCC1(O)OC[C@@H](O)C(O[C@H]2O[C@H](CO)[C@@H](O)[C@H](O)[C@H]2O)[C@@H]1O)C(=O)O (stereo partly shown) [Example 3, Maltulosyl N-Ethyl Theanine] | 86% | 15% | no significant change | reduced count | 0.1 | safe to the skin |
| CCNC(=O)CC[C@H](N)C(=O)O [Theanine, theanine] | 98% | 50% | – | – | – | – |
